Measurements: US20220211605A1, “AGENT FOR PROTECTION AGAINST ATMOSPHERIC POLLUTANTS AND COMPOSITION FOR PROTECTION AGAINST ATMOSPHERIC POLLUTANTS” (SHOWA DENKO K.K., priority 2019, published 2022)

What was measured:
[1] = tested on: cell line derived from Lewis lung carcinoma (LLC); assay: Effect of suppressing invasion of cancer cells (CytoSelect invasion assay kit) exposed to atmospheric dust; format: cell-based; conditions: sample 10 μM for 24 hours, then atmospheric dust (NIST 1648a) added 500 μg/mL for 6 hours + 18 hours, fluorescence relative to control without atmospheric dust = 1
Experimental: The effect of Na tocopherol phosphate on suppressing the invasion of cells in a cell line derived from Lewis lung carcinoma (LLC, JCRB Cell Bank) was measured under the following conditions. A CytoSelect invasion assay kit manufactured by Cell Biolabs, Inc. was used for a test.
The LLC cells were seeded in a chamber plate for invasion tests attached to the above-mentioned invasion assay kit so that the concentration was 100000 cells/mL using a culture medium in which a Ham F10 medium and an L15 medium (both manufactured by Sigma-Aldrich) were mixed at the ratio of 3:7 (volume ratio), and cultured for 24 hours under the conditions of 37° C. and 5% CO2. Next, a sample, in which Na tocopherol phosphate or tocopherol acetate was dissolved in an aqueous solution of 0.05% (V/V) ethanol, was added to the culture medium so that the final concentration of Na tocopherol phosphate or tocopherol acetate was 10 μM, and culturing was further performed for 24 hours under the conditions of 37° C. and 5% CO2. […] Thereafter, the cells were stained using the above-mentioned invasion assay kit, and the fluorescence intensity at an excitation wavelength of 480 nm/an absorption wavelength of 570 nm was measured with a microplate reader i-Control (manufactured by Tecan Group Ltd.). […]

[2] = tested on: normal human epidermal keratinocytes (NHEK); assay: Effect of suppressing ROS production (dichlorofluorescein diacetate ROS assay kit) in NHEK exposed to atmospheric dust; format: cell-based; conditions: sample 10 μM for 24 hours, then atmospheric dust (NIST 1648a) added 500 μg/mL for 48 hours, fluorescence relative to control without atmospheric dust = 1
Experimental: The effect of Na tocopherol phosphate on suppressing ROS production in normal human epidermal keratinocytes (NHEK, manufactured by KURABO INDUSTRIES LTD.) was measured under the following conditions.
The NHEK cells were seeded in a HuMedia KG2 medium manufactured by KURABO INDUSTRIES LTD. at the seeding density of 10000 cells/cm^2, and cultured for 24 hours under the conditions of 37° C. and 5% CO2. Next, a sample, in which Na tocopherol phosphate or tocopherol acetate was dissolved in an aqueous solution of 0.05% (V/V) ethanol, was added to the culture medium so that the final concentration of Na tocopherol phosphate or tocopherol acetate was 10 μM, and culturing was performed for 24 hours under the conditions of 37° C. and 5% CO2. Furthermore, one obtained by adding 1 μL of the aqueous solution of 0.05% (V/V) ethanol to the culture medium and culturing for 24 hours was also prepared. […] Thereafter, the ROS production amount was measured using a ROS assay kit (manufactured by OZ BIOSCIENCES). […] After washing with PBS again, 100 μL of PBS was added, and the fluorescence intensity at an excitation wavelength of 485 nm/an absorption wavelength of 535 nm was measured with a microplate reader i-Control (manufactured by Tecan Group Ltd.). […]

[3] = tested on: cell line derived from Lewis lung carcinoma (LLC); assay: Effect of suppressing proliferation of cancer cells (WST-8) exposed to atmospheric dust; format: cell-based; conditions: sample 10 μM for 24 hours, then atmospheric dust (NIST 1648a) added 500 μg/mL for 48 hours, absorbance 450 nm relative to control without atmospheric dust = 1
Experimental: The effect of Na tocopherol phosphate on suppressing the proliferation of cancer cells in a cell line derived from Lewis lung carcinoma (LLC, JCRB Cell Bank) was measured under the following conditions.
The LLC cells were seeded at the seeding density of 50000 cells/cm^2 in a culture medium in which a Ham F10 medium and an L15 medium (both manufactured by Sigma-Aldrich) were mixed at the ratio of 3:7 (volume ratio), and cultured for 24 hours under the conditions of 37° C. and 5% CO2. Next, a sample, in which Na tocopherol phosphate or tocopherol acetate was dissolved in an aqueous solution of 0.05% (V/V) ethanol, was added to the culture medium so that the final concentration of Na tocopherol phosphate or tocopherol acetate was 10 μM, and culturing was performed for 24 hours. Furthermore, one obtained by adding 1 μL of the aqueous solution of 0.05% (VN) ethanol to the culture medium and culturing for 24 hours was also prepared. […] Thereafter, the culture medium was replaced with a medium containing 10% (VN) of WST-8 of Nacalai Tesque Inc., and after further culturing for 3 hours, the absorbance at the wavelength of 450 nm was measured with a microplate reader i-Control (manufactured by Tecan Group Ltd.). […]

[4] = tested on: NRF2 gene; assay: Effect of promoting expression of NRF2 gene (quantitative real-time PCR, standardized to GAPDH) in NHEK exposed to atmospheric dust; format: cell-based, human; conditions: sample 10 μM for 24 hours, then atmospheric dust added 500 μg/mL for 48 hours, relative to control without atmospheric dust = 1
Experimental: The effect of Na tocopherol phosphate on promoting the expression of an NRF2 gene in normal human epidermal keratinocytes (NHEK, manufactured by KURABO INDUSTRIES LTD.) was measured under the following conditions.
The NHEK cells were seeded in a HuMedia KG2 medium manufactured by KURABO INDUSTRIES LTD. at the seeding density of 10000 cells/cm^2, and cultured for 24 hours under the conditions of 37° C. and 5% CO2. Next, a sample, in which Na tocopherol phosphate or tocopherol acetate was dissolved in an aqueous solution of 0.05% (V/V) ethanol, was added to the culture medium so that the final concentration of Na tocopherol phosphate or tocopherol acetate was 10 μM, and culturing was performed for 24 hours. Furthermore, one obtained by adding 5 μL of the aqueous solution of 0.05% (V/V) ethanol to the culture medium and culturing for 24 hours was also prepared. […] Using this cDNA as a template, the expression level of the NRF2 gene was quantitatively determined by quantitative real-time PCR using a primer specific to the NRF2 gene (Perfect Real Time Primer, manufactured by Takara Bio Inc.). As an internal standard gene, the expression level of GAPDH was quantitatively determined (primer used: Perfect Real Time Primer, manufactured by Takara Bio Inc.), and the expression level of the NRF2 gene was standardized based on the expression level of GAPDH. […]

SMILES: CC(=O)Oc1c(C)c(C)c2c(c1C)CCC(C)(CCC[C@H](C)CCC[C@H](C)CCCC(C)C)O2 (stereo partly shown) [Tocopherol acetate, tocopherol acetate]
- Relative cell invasion [1]: 2.08
- Relative ROS production amount [2]: 1.67
- Relative cell proliferation amount [3]: 3.98
- Relative gene expression level NRF2 [4]: 0.71
